{
  "source": "PubChem BioAssay AID264",
  "about": "(DTP/NCI, 2004)",
  "system": "nude mice, LX-1 lung xenograft intrarenal, tumor weight T/C",
  "assay": "NCI In Vivo Anticancer Drug Screen. Data for tumor model Human Lung LX-1 Xenograft (intrarenal inoculation) in NU/NU Swiss (nude) mice",
  "details": "endpoint: mean tumor weight change, higher = larger tumour",
  "summary_of_the_method": "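Activity was scored by measuring tumors in treated animals and in vehicle controls, then reporting the treated result as a fraction of the control result.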",
  "note": "Where “and” joins values, the source holds several entries; their conditions need not be identical. Equal entries are not always repeated. Records with an inconclusive call do not appear.",
  "data": [
    {"smiles": "C[C@H]1C[C@@H]2[C@H]([C@@H](O)C[C@@]3(C)[C@H]2CC[C@]3(O)C(=O)CO)[C@@]2(C)C=CC(=O)C=C12", "values": [
      {"measurement": "T/C", "setting": "dose: 200.0 mg/kg/injection, schedule: Q04DX003 (sc), vehicle: Klucel (hydroxypropylcellulose) (HPC)", "result": "76 % of control"},
      {"measurement": "T/C", "setting": "dose: 400.0 mg/kg/injection, schedule: Q04DX003 (sc), vehicle: Klucel (hydroxypropylcellulose) (HPC)", "result": "58 % of control"},
      {"measurement": "T/C", "setting": "dose: 800.0 mg/kg/injection, schedule: Q04DX003 (sc), vehicle: Klucel (hydroxypropylcellulose) (HPC)", "result": "59 % of control"}
    ]},
    {"smiles": "Cc1c2c(ccc3ccccc32)c[n+]2ccccc12", "values": [
      {"measurement": "T/C", "setting": "dose: 3.13 mg/kg/injection, schedule: Q01DX010 (sc), vehicle: saline", "result": "59 % of control"},
      {"measurement": "T/C", "setting": "dose: 6.25 mg/kg/injection, schedule: Q01DX010 (sc), vehicle: saline", "result": "83 % of control"},
      {"measurement": "T/C", "setting": "dose: 12.5 mg/kg/injection, schedule: Q01DX010 (sc), vehicle: saline", "result": "38 % of control"}
    ]},
    {"smiles": "O=C(Nc1ccc(C2=NCCN2)cc1)c1ccc(C(=O)Nc2ccc(C3=NCCN3)cc2)c(Cl)c1", "values": [
      {"measurement": "T/C", "setting": "dose: 12.5 mg/kg/injection, schedule: Q01DX010 (sc), vehicle: water", "result": "74 % of control"},
      {"measurement": "T/C", "setting": "dose: 25.0 mg/kg/injection, schedule: Q01DX010 (sc), vehicle: water", "result": "71 % of control"},
      {"measurement": "T/C", "setting": "dose: 50.0 mg/kg/injection, schedule: Q01DX010 (sc), vehicle: water", "result": "34 % of control"}
    ]},
    {"smiles": "O=C1C(NCCO)=C(N2CC2)C(=O)C(NCCO)=C1N1CC1", "values": [
      {"measurement": "T/C", "setting": "dose: 0.5 mg/kg/injection, schedule: Q04DX003 (ip), vehicle: saline", "result": "117 % of control"},
      {"measurement": "T/C", "setting": "dose: 1.5 mg/kg/injection, schedule: Q04DX003 (sc), vehicle: suspension in saline", "result": "203 % of control"},
      {"measurement": "T/C", "setting": "dose: 2.0 mg/kg/injection, schedule: Q04DX003 (ip), vehicle: saline", "result": "61 % of control"},
      {"measurement": "T/C", "setting": "dose: 4.0 mg/kg/injection, schedule: Q04DX003 (ip), vehicle: saline", "result": "77 % of control"}
    ]},
    {"smiles": "CCCCCCCCCCCC(=O)NC1CC(O[C@H]2C[C@](O)(C(=O)CO)Cc3c(O)c4c(c(O)c32)C(=O)c2c(OC)cccc2C4=O)OC(C)C1O", "note": "(stereo partly specified)", "values": [
      {"measurement": "T/C", "setting": "dose: 300.0 mg/kg/injection, schedule: Q04DX003 (sc), vehicle: water", "result": "5 % of control"},
      {"measurement": "T/C", "setting": "dose: 600.0 mg/kg/injection, schedule: Q04DX003 (sc), vehicle: water", "result": "76 % of control"},
      {"measurement": "T/C", "setting": "dose: 1200.0 mg/kg/injection, schedule: Q04DX003 (sc), vehicle: water", "result": "55 % of control"},
      {"measurement": "T/C", "setting": "dose: 2400.0 mg/kg/injection, schedule: Q04DX003 (sc), vehicle: water", "result": "118 % of control"}
    ]},
    {"smiles": "CC(=O)Oc1ccccc1O", "values": [
      {"measurement": "T/C", "setting": "dose: 150.0 mg/kg/injection, schedule: Q04DX003 (sc), vehicle: saline + Tween-80 + alcohol", "result": "105 % of control"},
      {"measurement": "T/C", "setting": "dose: 300.0 mg/kg/injection, schedule: Q04DX003 (sc), vehicle: saline + Tween-80 + alcohol", "result": "101 % of control"},
      {"measurement": "T/C", "setting": "dose: 600.0 mg/kg/injection, schedule: Q04DX003 (sc), vehicle: saline + Tween-80 + alcohol", "result": "89 % of control"},
      {"measurement": "T/C", "setting": "dose: 1200.0 mg/kg/injection, schedule: Q04DX003 (sc), vehicle: saline + Tween-80 + alcohol", "result": "82 % of control"}
    ]},
    {"smiles": "C[n+]1ccc2cc(N)c3c4ccccc4sc3c2c1", "values": [
      {"measurement": "T/C", "setting": "dose: 6.25 mg/kg/injection, schedule: Q04DX003 (sc), vehicle: saline with Tween-80", "result": "67 % of control"},
      {"measurement": "T/C", "setting": "dose: 12.5 mg/kg/injection, schedule: Q04DX003 (sc), vehicle: saline with Tween-80", "result": "93 % of control"},
      {"measurement": "T/C", "setting": "dose: 25.0 mg/kg/injection, schedule: Q04DX003 (sc), vehicle: saline with Tween-80", "result": "70 % of control"},
      {"measurement": "T/C", "setting": "dose: 50.0 mg/kg/injection, schedule: Q04DX003 (sc), vehicle: saline with Tween-80", "result": "74 % of control"}
    ]},
    {"smiles": "C[C@]12CCC(=O)C(O)=C1CC[C@@H]1[C@@H]2CC[C@]2(C)C(=O)CC[C@@H]12", "values": [
      {"measurement": "T/C", "setting": "dose: 50.0 mg/kg/injection, schedule: Q01DX010 (sc), vehicle: Klucel (hydroxypropylcellulose) (HPC)", "result": "43 % of control"},
      {"measurement": "T/C", "setting": "dose: 100.0 mg/kg/injection, schedule: Q01DX010 (sc), vehicle: Klucel (hydroxypropylcellulose) (HPC)", "result": "30 % of control"},
      {"measurement": "T/C", "setting": "dose: 200.0 mg/kg/injection, schedule: Q01DX010 (sc), vehicle: Klucel (hydroxypropylcellulose) (HPC)", "result": "47 % of control"},
      {"measurement": "T/C", "setting": "dose: 400.0 mg/kg/injection, schedule: Q01DX010 (sc), vehicle: Klucel (hydroxypropylcellulose) (HPC)", "result": "48 % of control"}
    ]},
    {"smiles": "NC(=O)c1ncn2c(=O)n(CCCl)nnc12", "values": [
      {"measurement": "T/C", "setting": "dose: 12.5 mg/kg/injection, schedule: Q04DX003 (sc), vehicle: saline", "result": "56 % of control and 64 % of control"},
      {"measurement": "T/C", "setting": "dose: 12.5 mg/kg/injection, schedule: Q04DX003 (sc), vehicle: suspension in saline", "result": "80 % of control"},
      {"measurement": "T/C", "setting": "dose: 25.0 mg/kg/injection, schedule: Q04DX003 (sc), vehicle: saline", "result": "23 % of control and 40 % of control"},
      {"measurement": "T/C", "setting": "dose: 25.0 mg/kg/injection, schedule: Q04DX003 (sc), vehicle: suspension in saline", "result": "49 % of control"},
      {"measurement": "T/C", "setting": "dose: 50.0 mg/kg/injection, schedule: Q04DX003 (sc), vehicle: saline", "result": "3 % of control and 19 % of control"},
      {"measurement": "T/C", "setting": "dose: 50.0 mg/kg/injection, schedule: Q04DX003 (sc), vehicle: suspension in saline", "result": "18 % of control"},
      {"measurement": "T/C", "setting": "dose: 100.0 mg/kg/injection, schedule: Q04DX003 (sc), vehicle: saline", "result": "7 % of control"}
    ]}
  ]
}
